Numbering of substitutions follows the chain as printed.
Tests used:
[1] = system: salt-depleted, conscious marmosets; test: Marmoset blood pressure reduction on intravenous administration; type: in vivo, Marmoset monkeys (Callithrix jacchus); details: 100 micrograms/kg intravenously
Experimental: The blood pressure reducing activity of the renin inhibitor compound of Example 1 was determined in vivo in Marmoset monkeys using the following procedure. Common Marmoset monkeys (Callithrix jacchus, Charles River, both sexes, body weight ca. 400 g) were placed on a modified high protein low sodium diet (Purina, St. Louis, Mo.) for 1 week. 24 hours prior to the administration of test compound, Lasix (5 mg/kg, im) was given. On the day of the test, the animal was anesthetized with isoflurane, body weight recorded, and the left femoral artery and vein were catheterized. The animal was allowed to regain consciousness and the title compound of Example 1 (100 micrograms/kg) was administered intravenously in 0.1 mL/kg polyethylene glycol 400 at time zero. Mean arterial blood pressure (MABP) in mmHg was then recorded every ten minutes until 120 minutes.

[2] = target: T1, renin (human plasma) (Homo sapiens, UniProt P00797); test: Renin inhibitor species specificity, human plasma renin activity; type: biochemical
T1 construct: the animal plasma is the source of both the renin substrate and the renin enzyme; from tissue
T1 sequence (P00797 67-406): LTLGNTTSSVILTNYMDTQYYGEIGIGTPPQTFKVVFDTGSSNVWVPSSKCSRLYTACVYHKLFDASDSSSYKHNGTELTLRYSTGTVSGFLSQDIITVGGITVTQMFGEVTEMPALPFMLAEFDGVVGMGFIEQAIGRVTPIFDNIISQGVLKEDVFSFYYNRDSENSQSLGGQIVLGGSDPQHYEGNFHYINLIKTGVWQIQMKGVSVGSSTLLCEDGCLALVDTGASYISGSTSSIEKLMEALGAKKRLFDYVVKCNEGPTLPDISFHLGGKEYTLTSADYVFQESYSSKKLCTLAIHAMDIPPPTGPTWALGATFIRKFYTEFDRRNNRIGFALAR
Experimental: (§1) Blood was collected in a 10 ml Becton Dickinson vacutainer tube with 0.1 ml of 15% EDTA (K3) solution (15 mg) from normal animals or high renin animals; i.e., those pre-treated with 5 mg/kg of Lasix® intramuscularly 2 times within a 6 hour interval 24 hours prior to bleeding. The blood was then centrifuged at 2500 RPM for 20 minutes and the plasma from the various species respectively pooled, aliquoted and stored in the freezer. The human plasma source was taking a prescription of an angiotensin converting enzyme inhibitor.
(§2) The plasma renin activity assay is a modification of the human renin inhibition test in that the animal plasma is the source of both the renin substrate and the renin enzyme. In a total volume of 0.1 ml, 90 mM Tris-acetate buffer, pH 7.5, 12 mM sodium EDTA, 0.012 mg/ml neomycin sulfate, 0.9 mg/ml bovine serum albumin, 1.61 mM phenylmethyl sulfonyl fluoride, 4 mM 8-hydroxyquinoline and 0.09 ml of the animal or human plasmas were incubated for 2 hours at 37° C. in a shaking water bath or at 4° C. in an ice bath in the presence or absence of renin inhibitors. The produced angiotensin I was determined by radioimmunoassay (New England Nuclear kit).
(§3) The amount of angiotensin I generated during the 2 hours at 4° C. was usually less than 5% of that activity produced at 37° C.; however, the 4° C. background values were nevertheless subtracted from the 37° C. ones for the 100% activity values. The renin inhibitors were assayed in duplicate using 5 concentrations and the data is expressed as a percent of the 100% total renin activity.

[3] = target: T2, renin (Cyno Monkey plasma) (Macaca fascicularis, UniProt Q6DLS0); test: Renin inhibitor species specificity, cyno monkey plasma renin activity; type: biochemical
T2 construct: the animal plasma is the source of both the renin substrate and the renin enzyme; from tissue; host or cells: pooled cynomolgus monkey plasma
T2 sequence (Q6DLS0 67-406): T1 sequence (P00797 67-406) with T2A, I148L, S169A
Experimental: as §1, §2, §3

[4] = target: T3, renin (Marmoset Monkey plasma) (Callithrix jacchus, UniProt Q9TSZ1); test: Renin inhibitor species specificity, marmoset plasma renin activity; type: biochemical
T3 construct: the animal plasma is the source of both the renin substrate and the renin enzyme; from tissue; host or cells: pooled marmoset plasma
T3 sequence (Q9TSZ1 61-400): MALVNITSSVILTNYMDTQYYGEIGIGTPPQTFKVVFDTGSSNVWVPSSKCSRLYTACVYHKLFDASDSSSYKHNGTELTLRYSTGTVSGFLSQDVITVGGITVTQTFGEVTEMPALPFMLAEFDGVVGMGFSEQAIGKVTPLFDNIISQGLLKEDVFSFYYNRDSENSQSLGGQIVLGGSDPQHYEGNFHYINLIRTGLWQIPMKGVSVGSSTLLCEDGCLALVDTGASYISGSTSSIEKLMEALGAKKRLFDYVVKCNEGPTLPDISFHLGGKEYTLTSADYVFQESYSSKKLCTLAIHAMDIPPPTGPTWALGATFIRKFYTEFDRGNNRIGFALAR
Experimental: as §1, §2, §3

% of Total Renin Activity ([2]; 1 nM): 90% | % of Total Renin Activity ([2]; 4 nM): 50% | % of Total Renin Activity ([2]; 16 nM): 10% | % of Total Renin Activity ([3]; 1 nM): 81% | % of Total Renin Activity ([3]; 4 nM): 51% | % of Total Renin Activity ([3]; 16 nM): 18% | % of Total Renin Activity ([4]; 0.25 nM): 94% | % of Total Renin Activity ([4]; 1 nM): 75% | % of Total Renin Activity ([4]; 4 nM): 42% | % of Total Renin Activity ([4]; 16 nM): 11%
SMILES: C#CC[C@H](NC(=O)C(CC(=O)N(C)CCN(C)C)Cc1ccccc1)C(=O)NC(CC1CCCCC1)[C@@H](O)C(O)CC(C)C (relative stereo) [Example 1, N1-[1R*-[[[1S,1R*-(cyclohexylmethyl)-2S*,3R*-dihydroxy-5-methylhexyl]amino]carbonyl]-3-butynyl]-N4-[2-(dimethylamino)ethyl]-N4-methyl-2S*-(phenylmethyl)butanediamide]
MABP ([1]; 10 min (n = 3)): 106 mmHg | MABP ([1]; 20 min (n = 3)): 97 mmHg | MABP ([1]; 30 min (n = 3)): 93 mmHg | MABP ([1]; 40 min (n = 3)): 92 mmHg | MABP ([1]; 50 min (n = 3)): 90 mmHg | MABP ([1]; 60 min (n = 3)): 89 mmHg | MABP ([1]; 70 min (n = 3)): 87 mmHg | MABP ([1]; 80 min (n = 3)): 88 mmHg | MABP ([1]; 90 min (n = 3)): 89 mmHg | MABP ([1]; 100 min (n = 3)): 91 mmHg | MABP ([1]; 110 min (n = 3)): 93 mmHg | MABP ([1]; 120 min (n = 3)): 94 mmHg | MABP ([1]; time 0 min (n = 3)): 118 mmHg | effect on blood pressure (in words) ([1]; salt-depleted, conscious marmosets): lowers blood pressure

Source: patent US6515025B2, “Use of ethynyl alanine amino diol compounds to inhibit enzymatic conversion of angiotensinogen to angiotensin I” (Pharmacia Corporation, priority 1991, dated 2003)
